Results as given in patent US20240150365A1 (Hotspot Therapeutics, Inc., priority 2022, published 2024).
pIC50: −log10 of the molar value. Read-outs that look alike come from different tables or passages of the source.

Columns and labels:
[1] = biological target: T1, MALT1 (Homo sapiens, UniProt Q9UDY8); test: MALT-1 Fluorogenic Peptide Cleavage Assay (MALT1 inhibition assay); format: biochemical; conditions: Avi-tagged FL MALT-1, Ac-LRSR-AMC peptide substrate, 30 min pre-incubation, 90 min reaction
T1 construct: Avi-tagged FL MALT-1 (Pharmaron, stored at −70° C.); Avi tag
T1 sequence (Q9UDY8 1-824): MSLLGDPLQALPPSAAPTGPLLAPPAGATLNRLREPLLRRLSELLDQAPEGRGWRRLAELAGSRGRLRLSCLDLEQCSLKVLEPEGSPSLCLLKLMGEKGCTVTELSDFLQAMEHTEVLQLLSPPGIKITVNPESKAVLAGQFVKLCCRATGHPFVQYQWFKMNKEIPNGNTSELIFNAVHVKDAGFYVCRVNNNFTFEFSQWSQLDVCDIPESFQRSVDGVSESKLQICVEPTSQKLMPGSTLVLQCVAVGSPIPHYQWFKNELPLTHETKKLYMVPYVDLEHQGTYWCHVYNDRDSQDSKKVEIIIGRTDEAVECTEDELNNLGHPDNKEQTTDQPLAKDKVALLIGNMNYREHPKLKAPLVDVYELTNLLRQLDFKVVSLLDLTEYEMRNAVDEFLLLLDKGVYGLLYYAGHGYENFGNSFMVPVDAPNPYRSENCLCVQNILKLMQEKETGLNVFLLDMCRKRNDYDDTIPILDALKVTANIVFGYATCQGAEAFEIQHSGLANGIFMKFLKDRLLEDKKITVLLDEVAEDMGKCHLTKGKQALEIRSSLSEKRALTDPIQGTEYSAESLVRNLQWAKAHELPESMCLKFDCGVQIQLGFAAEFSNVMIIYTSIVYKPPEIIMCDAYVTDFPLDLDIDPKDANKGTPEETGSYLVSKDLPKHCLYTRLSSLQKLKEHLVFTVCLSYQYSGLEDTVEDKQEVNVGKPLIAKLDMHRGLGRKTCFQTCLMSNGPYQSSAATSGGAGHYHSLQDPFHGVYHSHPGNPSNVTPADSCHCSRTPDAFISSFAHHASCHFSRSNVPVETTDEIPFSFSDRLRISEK
Outline: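 IC50 from sigmoidal fits of % inhibition, with fluorescence (ex 342, em 441 nm) from AMC released from the quenched LRSR peptide after 90 min at room temperature. Full-length Avi-tagged MALT1 saw compound for 30 min first; final DMSO 2%.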

[2] = tested on: NF-kB; test: NF-kB reporter assay in Jurkat cells stimulated with aCD3/aCD28/PMA; format: cell-based; conditions: Homo sapiens, Jurkat, read-out: NF-kB Reporter Assay IC50
Outline: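 Stimulation used final aCD3 5 μg/mL, aCD28 5 μg/mL and PMA 0.03 μg/mL for 4 hr at 37° C, after 1 hr compound pretreatment of 25,000 serum-starved Jurkat cells per well. One-Glo luminescence gave IC50 values.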

[3] = Jurkat cells, 1 hr compound incubation, aCD3/aCD28/PMA stimulation 4 hr, One-Glo readout

Q: Cn1ncc2cccc(NS(=O)(=O)c3ccc(-n4cc(C5(O)CC5)cn4)nc3)c21 [Example I-56, 6-(4-(1-hydroxycyclopropyl)-1H-pyrazol-1-yl)-N-(1-methyl-1H-indazol-7-yl)pyridine-3-sulfonamide] was tested. Which pIC50 [1] did it give?
A: < 5.60

Q: And the pIC50 [2, 3]?
A: > 6.40

Q: With Cc1cc(NS(=O)(=O)c2ccc(-n3cc(C(F)(F)F)cn3)nc2)c2c(cnn2C)c1 [Example I-71, N-(1,5-Dimethyl-1H-Indazol-7-yl)-6-(4-(Trifluoromethyl)-1H-Pyrazol-1-yl) Pyridine-3-Sulfonamide] as the molecule, how does the pIC50 [1] read?
A: 5.60 to 6.00

Q: And the pIC50 [2, 3]?
A: > 6.40

Q: COc1ccc2cnn(C)c2c1NS(=O)(=O)c1ccc(-n2cc(C(C)(C)C)cn2)nc1 [Example I-285, 6-(4-tert-butylpyrazol-1-yl)-N-(6-methoxy-1-methylindazol-7-yl)pyridine-3-sulfonamide] was tested. Which pIC50 [1] did it give?
A: 6.00 to 6.40

Q: And the pIC50 [2, 3]?
A: > 6.40

Q: COc1ccc2cnn(C)c2c1NS(=O)(=O)c1ccc(-n2cc(C3CC3)cn2)nc1 [Example I-11, 6-(4-Cyclopropyl-1H-Pyrazol-1-yl)-N-(6-Methoxy-1-Methyl-1H-Indazol-7-yl)Pyridine-3-Sulfonamide] was tested. Which pIC50 [1] did it give?
A: > 6.40

Q: And the pIC50 [2, 3]?
A: > 6.40

Q: With [2H]C([2H])([2H])c1ccc2cnn(C)c2c1NS(=O)(=O)c1ccc(-n2cc(C(F)(F)F)cn2)nc1 [Example I-69, N-(1-Methyl-6-(Methyl-Ds)-1H-Indazol-7-yl)-6-(4-(Trifluoromethyl)-1H-Pyrazol-1-yl)Pyridine-3-Sulfonamide] as the molecule, how does the pIC50 [1] read?
A: > 6.40

Q: What about the pIC50 [2, 3] of the same molecule?
A: > 6.40

Q: Which results are given for Cn1ncc2cccc(NS(=O)(=O)c3ccc(-c4cc(C(F)(F)F)n[nH]4)nc3)c21 [Example I-84, N-(1-Methyl-1H-Indazol-7-yl)-6-(3-(Trifluoromethyl)-1H-Pyrazol-5-yl)Pyridine-3-Sulfonamide]?
A: pIC50 [1]: 6.00 to 6.40; pIC50 [2, 3]: > 6.40

Q: Which results are given for Cn1ncc2cccc(NS(=O)(=O)c3ccc(-c4ccc(Cl)nc4)nc3)c21 [Example I-219, 6′-Chloro-N-(1-Methyl-1H-Indazol-7-yl)-[2,3′-Bipyridine]-5-Sulfonamide]?
A: pIC50 [1]: < 5.60; pIC50 [2, 3]: > 6.40

Q: With COc1cc(-c2ccc(S(=O)(=O)Nc3cccc4cnn(C)c34)cn2)ccn1 [Example I-108, 2′-Methoxy-N-(1-Methyl-1H-Indazol-7-yl)-[2,4′-Bipyridine]-5-Sulfonamide] as the molecule, how does the pIC50 [1] read?
A: < 5.60

Q: What about the pIC50 [2, 3] of the same molecule?
A: > 6.40

Q: Which results are given for COc1ccc2c(F)nn(C)c2c1NS(=O)(=O)c1ccc(-n2cc(Cl)cn2)nc1 [Example I-240, 6-(4-chloro-1H-pyrazol-1-yl)-N-(3-fluoro-6-methoxy-1-methyl-1H-indazol-7-yl)pyridine-3-sulfonamide]?
A: pIC50 [1]: > 6.40; pIC50 [2, 3]: > 6.40

Q: With Cn1ncc2cccc(NS(=O)(=O)c3ccc(-n4cc(C5CC5)cn4)nc3)c21 [Example I-208, 6-(4-Cyclopropyl-1H-Pyrazol-1-yl)-N-(1-Methyl-1H-Indazol-7-yl)Pyridine-3-Sulfonamide] as the molecule, how does the pIC50 [1] read?
A: 5.60 to 6.00

Q: And the pIC50 [2, 3]?
A: > 6.40

Q: Cc1cn(-c2ccc(S(=O)(=O)Nc3cccc4cnn(C)c34)cn2)nc1C(F)(F)F [Example I-44, 6-[4-Methyl-3-(Trifluoromethyl)Pyrazol-1-Yl]-N-(1-Methylindazol-7-yl)Pyridine-3-Sulfonamide] was tested. Which pIC50 [1] did it give?
A: 6.00 to 6.40

Q: What about the pIC50 [2, 3] of the same molecule?
A: > 6.40

Q: With COc1ccc2cnn(C)c2c1NS(=O)(=O)c1ccc(-c2nn(C)c3c2COCC3)nc1 [Example I-307] as the molecule, how does the pIC50 [1] read?
A: < 5.60

Q: What about the pIC50 [2, 3] of the same molecule?
A: 6.00 to 6.40

Q: Cc1nn(-c2ccc(S(=O)(=O)Nc3cccc4cnn(C)c34)cn2)c(C)c1C [Example I-59, N-(1-Methyl-1H-Indazol-7-yl)-6-(3,4,5-Trimethyl-1H-Pyrazol-1-yl)Pyridine-3-Sulfonamide] was tested. Which pIC50 [1] did it give?
A: < 5.60

Q: What about the pIC50 [2, 3] of the same molecule?
A: > 6.40

Q: Cn1cncc1-c1ccc(S(=O)(=O)Nc2cccc3cnn(C)c23)cn1 [Example I-90, 6-(1-Methyl-1H-Imidazol-5-yl)-N-(1-Methyl-1H-Indazol-7-yl)Pyridine-3-Sulfonamide] was tested. Which pIC50 [1] did it give?
A: < 5.60

Q: And the pIC50 [2, 3]?
A: 6.00 to 6.40

Q: How did the pIC50 [1] turn out when COc1ncc2cnn(C)c2c1N(C)S(=O)(=O)c1ccc(-n2cc(C(F)(F)F)cn2)nc1 [Example I-183, N-(6-methoxy-1-methyl-1H-pyrazolo[4,3-c]pyridin-7-yl)-N-methyl-6-(4-(trifluoromethyl)-1H-pyrazol-1-yl)pyridine-3-sulfonamide] was run?
A: > 6.40

Q: And the pIC50 [2, 3]?
A: > 6.40

Q: What does the source list for COc1ccc2cnn(C)c2c1NS(=O)(=O)c1ccc(-n2nc(C)cc2C)nc1 [Example I-142, 6-(3,5-Dimethyl-1H-Pyrazol-1-yl)-N-(6-Methoxy-1-Methyl-1H-Indazol-7-yl)Pyridine-3-Sulfonamide]?
A: pIC50 [1]: > 6.40; pIC50 [2, 3]: > 6.40

Q: Which results are given for COc1ccc2cnn(C)c2c1NS(=O)(=O)c1ccc(-n2ncc(CO)c2C)nc1 [Example I-242, 6-[4-(hydroxymethyl)-5-methylpyrazol-1-yl]-N-(6-methoxy-1-methylindazol-7-yl)pyridine-3-sulfonamide]?
A: pIC50 [1]: 6.00 to 6.40; pIC50 [2, 3]: > 6.40

Q: With Cn1nc(-c2ccc(S(=O)(=O)Nc3cccc4cnn(C)c34)cn2)c2c1CCOC2 [Example I-306, 6-(1-methyl-1,4,6,7-tetrahydropyrano[4,3-c]pyrazol-3-yl)-N-(1-methyl-1H-indazol-7-yl)pyridine-3-sulfonamide] as the molecule, how does the pIC50 [1] read?
A: < 5.60

Q: And the pIC50 [2, 3]?
A: > 6.40

Q: Which results are given for Cn1[nH]c2cccc(NS(=O)(=O)c3ccc(-n4cc(C(F)(F)F)cn4)nc3)c2c1=O [Example I-190, N-(2-methyl-3-oxo-2,3-dihydro-1H-indazol-4-yl)-6-(4-(trifluoromethyl)-1H-pyrazol-1-yl)pyridine-3-sulfonamide]?
A: pIC50 [1]: < 5.60; pIC50 [2, 3]: < 5.60

Q: How did the pIC50 [1] turn out when Cc1ncn(-c2ccc(S(=O)(=O)Nc3cccc4cnn(C)c34)cn2)n1 [Example I-37, 6-(3-Methyl-1H-1,2,4-Triazol-1-yl)-N-(1-Methyl-1H-Indazol-7-yl)Pyridine-3-Sulfonamide] was run?
A: < 5.60

Q: And the pIC50 [2, 3]?
A: 5.60 to 6.00

Q: With COc1cc(NS(=O)(=O)c2ccc(-n3cc(C(F)(F)F)cn3)nc2)c2c(cnn2C)c1 [Example I-72, N-(5-Methoxy-1-Methylindazol-7-yl)-6-[4-(Trifluoromethyl)Pyrazol-1-Yl]Pyridine-3-Sulfonamide] as the molecule, how does the pIC50 [1] read?
A: 5.60 to 6.00

Q: What about the pIC50 [2, 3] of the same molecule?
A: > 6.40

Q: With Cn1ncc2cccc(NS(=O)(=O)c3ccc(-c4ccc[nH]4)nc3)c21 [Example I-80, N-(1-Methyl-1H-Indazol-7-yl)-6-(1H-Pyrrol-2-yl)Pyridine-3-Sulfonamide] as the molecule, how does the pIC50 [1] read?
A: < 5.60

Q: What about the pIC50 [2, 3] of the same molecule?
A: 5.60 to 6.00

Q: With Cc1ncccc1-c1ccc(S(=O)(=O)Nc2cccc3cnn(C)c23)cn1 [Example I-113, 2′-Methyl-N-(1-Methylindazol-7-yl)-[2,3′-Bipyridine]-5-Sulfonamide] as the molecule, how does the pIC50 [1] read?
A: < 5.60

Q: And the pIC50 [2, 3]?
A: 6.00 to 6.40

Q: Which results are given for COCCn1ncc2cccc(NS(=O)(=O)c3ccc(-n4nccc4C4CC4)nc3)c21 [Example I-216, 6-(5-Cyclopropyl-1H-Pyrazol-1-yl)-N-(1-(2-Methoxyethyl)-1H-Indazol-7-yl)Pyridine-3-Sulfonamide]?
A: pIC50 [1]: < 5.60; pIC50 [2, 3]: < 5.60

Q: What does the source list for COc1ncc2cnn(C)c2c1NS(=O)(=O)c1ccc(-c2nn(C)c3c2COCC3)nc1 [Example I-305]?
A: pIC50 [1]: < 5.60; pIC50 [2, 3]: 6.00 to 6.40

Q: COc1ccc2cnn(C)c2c1NS(=O)(=O)c1ccc(-n2ccc(C(F)(F)F)n2)nc1 [Example I-16] was tested. Which pIC50 [1] did it give?
A: > 6.40

Q: What about the pIC50 [2, 3] of the same molecule?
A: > 6.40

Q: Which results are given for COc1ccc2cnn(C)c2c1N(CCCN(C)C)S(=O)(=O)c1ccc(-n2cc(C(F)(F)F)cn2)nc1 [Example I-164, N-(3-(Dimethylamino)Propyl)-N-(6-Methoxy-1-Methyl-1H-Indazol-7-yl)-6-(4-(Trifluoromethyl)-1H-Pyrazol-1-yl)Pyridine-3-Sulfonamide]?
A: pIC50 [1]: > 6.40; pIC50 [2, 3]: 6.00 to 6.40

Q: How did the pIC50 [1] turn out when COC(C)(C)c1ncc(-c2ccc(S(=O)(=O)Nc3cccc4cnn(C)c34)cn2)s1 [Example I-268, 6-(2-(2-methoxypropan-2-yl)thiazol-5-yl)-N-(1-methyl-1H-indazol-7-yl)pyridine-3-sulfonamide] was run?
A: < 5.60

Q: And the pIC50 [2]?
A: > 6.40

Q: Which results are given for COc1ccc2cnn(C)c2c1NS(=O)(=O)c1ccc(-n2ccc(C3CC3)n2)nc1 [Example I-153, 6-(3-Cyclopropyl-1H-Pyrazol-1-yl)-N-(6-Methoxy-1-Methyl-1H-Indazol-7-yl)Pyridine-3-Sulfonamide]?
A: pIC50 [1]: > 6.40; pIC50 [2, 3]: > 6.40
